Legend:
[1] = tested on: pApU (poly A–poly U) (RNA, polymer) A/U; assay: fluorescence titration, Scatchard fit; settings: I = 0.05 M (sodium cacodylate); sodium cacodylate buffer, pH 7.0; polynucleotide concentration as phosphates; n fixed at 0.2; per base
[2] = tested on: pApU (poly A–poly U) (RNA, polymer) A/U; assay: UV thermal denaturation at 260 nm; settings: I = 0.05 M (sodium cacodylate); sodium cacodylate buffer, pH 7.0; r = [compound]/[RNA] = 0.3; error ±0.5 °C; per base
[3] = tested on: p(dGdC)2 (poly dGdC–poly dGdC) (DNA, polymer) GC; assay: fluorescence titration, Scatchard fit; settings: I = 0.05 M (sodium cacodylate); sodium cacodylate buffer, pH 7.0; polynucleotide concentration as phosphates; n fixed at 0.2; per base
[4] = tested on: p(dAdT)2 (poly dAdT–poly dAdT) (DNA, polymer) AT; assay: fluorescence titration, Scatchard fit; settings: I = 0.05 M (sodium cacodylate); sodium cacodylate buffer, pH 7.0; polynucleotide concentration as phosphates; n fixed at 0.2; per base

log K [1]	ΔTm [2]	log K [3]	log K [4]	Structure (SMILES)
6.4	+1 °C	5.7	7.4	COc1c2cc(N)cc1Cc1cc(C(C)(C)C)cc(c1OCc1nccn1C)Cc1cc(NC(=O)CCCc3ccc4ccc5cccc6ccc3c4c56)cc(c1OC)Cc1cc(C(C)(C)C)cc(c1OCc1nccn1C)C2
7.2	-1 °C	6.9	6.6	COc1c2cc(NC(=O)CCCc3ccc4ccc5cccc6ccc3c4c56)cc1Cc1cc(C(C)(C)C)cc(c1OCc1nccn1C)Cc1cc(NC(=O)CCCc3ccc4ccc5cccc6ccc3c4c56)cc(c1OC)Cc1cc(C(C)(C)C)cc(c1OCc1nccn1C)C2
